We go through three compounds from patent EP0774258A1, “Composition containing 5-fluorouracil and d4T for use in the treatment of retroviral infection” (priority 1995, dated 1997).

Data set [1] has as its system clinical HIV-1 isolate, JEW. Description: Anti-HIV activity (p24 ELISA) in acutely infected PHA-stimulated PBMC, clinical isolate JEW. The data set is classed as cell-based. The source says:
The materials and experimental procedure used to obtain the results reported in Tables 1 and 2 are described below.
Virus - A clinical HIV-1 isolate, JEW, was titrated with a infectivity assay [Johnson, V. A. and R. E. Byington. 1990. Infectivity assay, p. 71-76. in A. Aldovini and B. D. Walker (ed.), Techniques in HIV Research. Stockton Press, New York], and used in our experiments.
Chemicals - d4T was supplied by Bristol-Myers Squibb Company. 5-Fluorouracil (5-FU) was purchased from Sigma.
• 1. […] 50 µl of 4 X 10^6/ml infected PBMC were added to each well in these plates to get a final 1 X 10^6 cells/ml, and incubated at 37°C. • 4. […] This was repeated with d4T using 5-FU concentrations of 0.1 µM and 0.5 µM, respectively.

For a further data set, the system named is PBMC. As to conditions: human.

Structures are written as SMILES.

As to `O=c1[nH]cc(F)c(=O)[nH]1` [5-FU, 5-fluorouracil], the antiviral activity result in data set [1] (Fluorouracil alone, up to 0.5 µM, PHA-PBMC acutely infected by isolate JEW) was “no antiviral activity”. The 50% cytotoxicity concentration result in the data set on PBMC is given as “approximately 9 µM”.
With `Cc1cn([C@H]2C=C[C@@H](CO)O2)c(=O)[nH]c1=O` [d4T, 2',3'-didehydro-3'-deoxythymidine], in data set [1] (enhancement of d4T anti-HIV activity by 0.2 µM 5-FU, isolate JEW), the “Fold Enhancement” value stood at 1 X.
As a reminder, the EC50 is the concentration giving half of the maximal effect. For `OC[C@@H]1CC[C@H](n2cnc3c(O)ncnc32)O1` [ddI, 2',3'-dideoxyinosine], in data set [1] (Human immunodeficiency virus 1, PBMC, 168 h, 5-FU concentration 0.5 µM, PHA-stimulated PBMC, isolate JEW, p24 at day 7, mean of three experiments, read-out: EC50 (nM) of ddI), the EC50 stood at 138 ± 26 nM. Besides, the “Fold Enhancement” value in data set [1] (effect of 0.2 µM 5-FU on ddI anti-HIV activity, isolate JEW) is 0.6 X; in data set [1] (effect of 0.5 µM 5-FU on ddI anti-HIV activity, isolate JEW) it was 0.7 X.
